Source: US20120071496A1, “Aminopyrimidinamides As Pest Control Agents” (Bayer CropScience AG, priority 2009, published 2012)

Assay: logP (HCOOH)
Format: physicochemical
Conditions: Table 2

SMILES | logP (HCOOH) | chromatographic logP (HCOOH (formic acid))
Cc1ncccc1C(=O)Nc1c(NC2CC2)ncnc1-c1ccc(F)cc1 [1-1] | 0.71 | 
CCc1ncccc1C(=O)Nc1c(NC2CC2)ncnc1-c1ccc(F)c(F)c1 [1-4] | 1.34 | 
Cc1ccccc1C(=O)Nc1c(NC2CC2)ncnc1-c1ccc(OC(F)(F)F)cc1 [1-72] | 2.35 | 
Cc1ncccc1C(=O)Nc1c(NC(C)C)ncnc1-c1ccc(OC(F)(F)F)cc1 [1-74] | 1.55 | 
O=C(Nc1c(NC2CC2)ncnc1-c1ccc(OC(F)(F)F)cc1)c1cccnc1Cl [1-75] | 1.99 | 
CC(C)Nc1ncnc(-c2ccc(OC(F)(F)F)cc2)c1NC(=O)c1cccnc1Cl [1-76] | 2.05 | 
O=C(Nc1c(NC2CC2)ncnc1-c1ccc(C(F)(F)F)cc1)c1ccccc1Cl [1-80] | 2.33 | 
Cc1ccccc1C(=O)Nc1c(NC2CC2)ncnc1-c1ccc(C(F)(F)F)cc1 [1-81] | 2.33 | 
O=C(Nc1c(NC2CC2)ncnc1-c1ccc(C(F)(F)F)cc1)c1cccnc1Cl [1-82] | 1.94 | 
Cc1ncccc1C(=O)Nc1c(NC2CC2)ncnc1-c1ccc(C(F)(F)F)cc1 [1-83] | 1.43 | 
O=C(Nc1c(NC2CC2)ncnc1-c1ccc(C(F)(F)F)cc1)c1cccnc1C(F)(F)F [1-84] | 2.19 | 
CC(C)c1ncccc1C(=O)Nc1c(NC2CC2)ncnc1-c1ccc(C(F)(F)F)cc1 [1-85] | 2.02 | 
CCc1ccccc1C(=O)Nc1c(NC2CC2)ncnc1-c1ccc(C(F)(F)F)cc1 [1-86] | 2.68 | 
Cc1nc(NC2CC2)c(NC(=O)c2cccnc2C)c(-c2ccc(C(F)(F)F)cc2)n1 [1-87] | 1.27 | 
Cc1nc(NC2CC2)c(NC(=O)c2ccccc2Cl)c(-c2ccc(C(F)(F)F)cc2)n1 [1-88] | 1.93 | 
CC(Nc1ncnc(-c2ccc(OC(F)(F)F)cc2)c1NC(=O)c1cccnc1Cl)C1CC1 (stereo not shown) [1-99] | 2.44 | 
O=C(Nc1c(NC(C2CC2)C2CC2)ncnc1-c1ccc(OC(F)(F)F)cc1)c1cccnc1Cl [1-111] | 2.65 | 
O=C(Nc1c(NC2CC2)ncnc1-c1ccc(OC(F)(F)F)cc1)c1ccccc1 [1-112] | 2.12 | 
O=C(Nc1c(NC2CC2)ncnc1-c1ccc(OC(F)(F)F)cc1)c1ccccc1Cl [1-113] | 2.41 | 
CCc1ncccc1C(=O)Nc1c(NC2CC2)ncnc1-c1ccc(SC(F)(F)F)cc1 [1-114] | 1.4 | 
Cc1ncccc1C(=O)Nc1c(NC2CC2)ncnc1-c1ccc(SC(F)(F)F)cc1 [1-116] | 1.81 | 

SMILES | logP (HCOOH) | chromatographic logP (HCOOH (formic acid))
Cc1ncccc1C(=O)Nc1c(NC2CC2)ncnc1-c1ccc(OS(=O)(=O)C(C)C)cc1 [1-121] | 1.15 | 
Cc1ncccc1C(=O)Nc1c(NC2CC2)ncnc1-c1cc(F)c(C(F)(F)F)c(F)c1 [1-122] | 1.95 | 
CCc1ncccc1C(=O)Nc1c(NC2CC2)ncnc1-c1ccc(F)cc1 [1-124] | 1.03 | 
CCc1ncccc1C(=O)Nc1c(NC2CC2)ncnc1-c1ccc(Cl)cc1Cl [1-126, N-[4-Cyclopropylamino-6-(2,4-dichlorophenyl)pyrimidin-5-yl]-2-ethylnicotinamide] |  | 1.6
CCc1ncccc1C(=O)Nc1c(NC2CC2)ncnc1-c1ccccc1 [1-127] | 1.01 | 
O=C(Nc1c(NC2CC2)ncnc1-c1ccccc1)c1cccnc1 [1-128] | 0.63 | 
O=C(Nc1c(NC2CC2)ncnc1-c1ccc(F)cc1)c1cccnc1Cl [1-129] | 1.27 | 
O=C(Nc1c(NC2CC2)ncnc1-c1ccc(Cl)cc1)c1cccnc1Cl [1-130] | 1.55 | 
CCc1ncccc1C(=O)Nc1c(NC2CC2)ncnc1-c1ccc(C#N)cc1 [1-133] | 1.10 | 
CCc1ncccc1C(=O)Nc1c(NC(C)(C)C)ncnc1-c1ccc(F)cc1 [1-134] | 1.53 | 
CCc1ncccc1C(=O)Nc1c(NC(C)(C)C)ncnc1-c1ccc(Cl)cc1 [1-135] | 1.86 | 
CCc1ncccc1C(=O)Nc1c(NC(C)(C)C)ncnc1-c1ccc(C#N)cc1 [1-136] | 1.81 | 
CCc1ncccc1C(=O)Nc1c(NC(C)(C)C)ncnc1-c1ccc(C(F)(F)F)cc1 [1-137] | 2.34 | 
CCc1ncccc1C(=O)Nc1c(NC(C)(C)C)ncnc1-c1ccc(OC(F)(F)F)cc1 [1-138] | 2.32 | 
CCc1ncccc1C(=O)Nc1c(NC2CC2)ncnc1-c1ccc(F)cc1Cl [1-139] | 0.79 | 
CCc1ncccc1C(=O)Nc1c(NC2CC2)ncnc1-c1ccccc1Cl [1-140] | 1.07 | 
CCc1ncccc1C(=O)Nc1c(NC(C)(C)C)ncnc1-c1ccc(Cl)cc1Cl [1-142] | 1.89 | 
CCc1ncccc1C(=O)Nc1c(NC(C)C2CC2)ncnc1-c1ccc(F)cc1 (stereo not shown) [1-143] | 1.47 | 
CCc1ncccc1C(=O)Nc1c(NC(C)C2CC2)ncnc1-c1ccc(Cl)cc1 (stereo not shown) [1-144] | 1.62 | 
CCc1ncccc1C(=O)Nc1c(NC(C)C2CC2)ncnc1-c1ccc(C#N)cc1 (stereo not shown) [1-145] | 1.67 | 
CCc1ncccc1C(=O)Nc1c(NC(C)C2CC2)ncnc1-c1ccc(OC(F)(F)F)cc1 (stereo not shown) [1-146] | 2.18 | 

SMILES | logP (HCOOH) | chromatographic logP (HCOOH (formic acid))
CCc1ncccc1C(=O)Nc1c(NC(C)C2(Cl)CC2)ncnc1-c1ccc(F)cc1 (stereo not shown) [1-147] | 1.95 | 
CCc1ncccc1C(=O)Nc1c(NC(C)C2(Cl)CC2)ncnc1-c1ccc(Cl)cc1Cl (stereo not shown) [1-148] | 2.67 | 
CCc1ncccc1C(=O)Nc1c(NC(C)C2(Cl)CC2)ncnc1-c1ccc(Cl)cc1 (stereo not shown) [1-149] | 2.26 | 
CCc1ncccc1C(=O)Nc1c(NC(C)C2(Cl)CC2)ncnc1-c1ccc(C#N)cc1 (stereo not shown) [1-150] | 2.08 | 
CCc1ncccc1C(=O)Nc1c(NC(C)(C)C2CC2)ncnc1-c1ccc(Cl)cc1 [1-151] | 2.22 | 
CCc1ncccc1C(=O)Nc1c(NC(C)C2CC2)ncnc1-c1ccccc1 (stereo not shown) [1-152] | 1.32 | 
COc1ncccc1C(=O)Nc1c(NC2CC2)ncnc1-c1ccc(Cl)cc1 [1-154] | 1.83 | 
COc1ncccc1C(=O)Nc1c(NC2CC2)ncnc1-c1ccc(C#N)cc1 [1-156] | 1.59 | 
COc1ncccc1C(=O)Nc1c(NC2CC2)ncnc1-c1ccc(OC(F)(F)F)cc1 [1-157] | 2.21 | 
CCOc1ncccc1C(=O)Nc1c(NC2CC2)ncnc1-c1ccc(Cl)cc1 [1-158] | 2.54 | 
CCOc1ncccc1C(=O)Nc1c(NC2CC2)ncnc1-c1ccc(F)cc1 [1-159] | 1.84 | 
CCOc1ncccc1C(=O)Nc1c(NC2CC2)ncnc1-c1ccc(C#N)cc1 [1-160] | 1.80 | 
CCOc1ncccc1C(=O)Nc1c(NC2CC2)ncnc1-c1ccc(OC(F)(F)F)cc1 [1-161] | 2.64 | 
CC(C)Oc1ncccc1C(=O)Nc1c(NC2CC2)ncnc1-c1ccc(F)cc1 [1-163] | 2.19 | 
CC(C)Oc1ncccc1C(=O)Nc1c(NC2CC2)ncnc1-c1ccc(C#N)cc1 [1-164] | 2.27 | 
CC(C)Oc1ncccc1C(=O)Nc1c(NC2CC2)ncnc1-c1ccc(OC(F)(F)F)cc1 [1-165] | 2.32 | 
O=C(Nc1c(NC2CC2)ncnc1-c1ccc(Cl)cc1)c1cccnc1OCC(F)(F)F [1-166] | 2.48 | 
O=C(Nc1c(NC2CC2)ncnc1-c1ccc(F)cc1)c1cccnc1OCC(F)(F)F [1-167] | 2.12 | 
N#Cc1ccc(-c2ncnc(NC3CC3)c2NC(=O)c2cccnc2OCC(F)(F)F)cc1 [1-168] | 2.11 | 
